Results as given in patent US11746354B2, “Homology dependent repair genome editing” (Inari Agriculture Technology, Inc., priority 2019, dated 2023).

Test system: maize (Zea mays) r1-colored1 gene
Experiment: HDR editing of an endogenous gene in maize protoplasts (RNP + dsDNA donor template, MiSeq sequencing)
Format: cell-based
Set-up: unit not given here
Conditions: 5 μM compound, 0.1% DMSO, B104 maize protoplasts, 48 hours at 26 degrees Celsius in the dark, average of triplicate samples; for Hypoxia Avg. (HDR): hypoxic conditions; for Normoxia Avg. (HDR): normoxic conditions
Experimental: This example describes a second set of experiments which investigated the effects of the 81 small molecules previously identified in the “traffic light” screen (Example 1) on HDR efficiency in editing an endogenous gene, the maize (Zea mays) r1-colored1 gene with partial genomic sequence SEQ ID NO: 5. A ribonucleoprotein (RNP) was prepared with a guide RNA designed to edit the promoter located at positions 313-333 of SEQ ID NO:5. A donor template was provided as a dsDNA for HDR repair. The experiments were carried out with protoplasts produced from etiolated leaves of B104 maize grown in the dark for 11 days. The protoplasts were co-transfected with the RNP and donor template. Transfected cells were incubated 48 hours at 26 degrees Celsius in the dark under either normoxic or hypoxic conditions with the indicated negative controls, positive controls, and small molecules and then harvested. The negative controls comprised cells transfected with the RNP only (no donor template). DMSO controls comprised the RNP and donor template and DMSO at a final concentration of 0.5% by volume DMSO. The positive control was a mixture of KU-0060648 (CAS No. 881375-00-4; Fischer Scientific, Waltham, Mass., USA), STL127705 (7-[2-(3,4-dimethoxyphenyl)ethyl]amino-3-(3-fluorophenyl)pyrimido[4,5-d]pyrimidine-2,4(1H,3H)-dione); Vitas-M, Champaign, Ill., USA), NU7441 (CAS No. 503468-95-9; Fischer Scientific Waltham, Mass., USA), and SCR7 pyrazine (CAS No. 14892-97-8; Tocris, Minneapolis, Minn., USA) (all at a stock concentration of 5 mM in DMSO) that was provided to the protoplasts at a final concentration of each of the four compounds of 5 μM. Certain positive control compounds have been reported to increase CRISPR-mediated HDR (Robert et al. 2015; Chu et al., 2015). All of the tested small molecules were also provided to the protoplasts at a final concentration of 5 μM of the compound and a final DMSO concentration of 0.1% by volume. Genomic DNA was isolated using KAPA Pure Bead capture (Kapa Biosystem) and the isolated gDNA was used as the template for a PCR with PHUSION FLASH (ThermoFisher). Samples were cleaned with KAPA Pure Bead capture and Illumina libraries were prepared and sequenced on MiSeq.

| Compound | Hypoxia Avg. (HDR) | Normoxia Avg. (HDR) |
| --- | --- | --- |
| CN(CCOc1ccc(CC2SC(=O)NC2=O)cc1)c1ccccn1 (stereo not drawn) [Rosiglitazone] | 4.97 | 3.20 |
| Nc1nccc(-c2ccc3noc(-c4ccc(Cl)cc4)c3c2)n1 [PIM-1 Inhibitor 2] | 5.19 | 1.37 |
| CC(C)Cn1c(=O)n(C)c(=O)c2nc[nH]c21 [IBMX] | 4.23 | 3.05 |
| c1ccc(-c2ccc(CNc3nc(-c4ccccn4)nnc3-c3ccccc3)cc2)cc1 [ML 228] | 4.49 | 0.46 |
| O=C1N=C(NCc2cccs2)S/C1=C\c1ccc2ncccc2c1 [Ro 3306] | 4.91 | 1.64 |
| Cc1ccc(C(=O)N(CCCN)[C@@H](c2[nH]c3cc(Cl)ccc3c(=O)[n+]2Cc2ccccc2)C(C)C)cc1 [Ispinesib] | 4.04 | 3.36 |
| Cc1ccc(C(=O)N(CCCN)[C@@H](c2oc3cc(Cl)ccc3c(=O)c2Cc2ccccc2)C(C)C)cc1.Cl [SB 743921 Hydrochloride] | 2.97 | 4.76 |
| Cc1oc(-c2ccccc2)nc1CCOc1ccc(CC2SC(=O)NC2=O)c2sccc12 (stereo not drawn) [Edaglitazone] | 6.28 | 3.56 |
| Nc1nc(Cl)nc2c1ncn2[C@@H]1O[C@H](CO)[C@@H](O)[C@H]1O [2-Chloroadenosine] | 5.00 | 2.45 |
| CSc1nc(-c2ccc(F)cc2)c(-c2ccnc(NC(C)c3ccccc3)c2)[nH]1 (stereo not drawn) [ML 3403] | 4.36 | 1.47 |
| CC(C)(C)c1ccc(S(=O)(=O)NCc2ccc(C(=O)Nc3cccnc3)cc2)cc1 [STF 31] | 5.00 | 0.40 |
| O=S(=O)(NCCCCCCc1ccccc1)c1cccc2c(Cl)cccc12 [SC-9] | 5.11 | 2.67 |
| CN(C)NC(=O)CCC(=O)O [Daminozide] | 0.48 | 4.57 |
| CC(=O)NCCNc1cc(Cl)nn2c(-c3cccc(S(=O)(=O)N(C)C)c3)c(C)nc12 [MI 14] | 7.75 | 0.37 |
| CC(=O)[C@H]1CC[C@H]2[C@@H]3CC[C@@H]4C[C@H](O)CC[C@]4(C)[C@H]3CC[C@]12C [Pregnanolone] | 2.52 | 4.43 |
